In PMC7117802 (ChemMedChem, 2020):
Each block holds one compound with its values, some of them ahead of it.

Experiments:
[1] = Reactivity of model compound 3 with nucleophiles; type: physicochemical
in vitro = conditions: mouse, microsomes
[2] = mouse, 1 μM, pH 7.4
[3] = Metabolic stability in mouse liver microsomes with or without NADPH
[4] = ref [2]; cited from earlier work
[5] = Stability of DT3-F2 in microsomes over 60 min, normal phase LC-fluorescence; type: in vitro ADME, mouse; conditions: 37 °C, no NADPH, fluorescence detection
[6] = Chemical stability in 15% aqueous NaOH; type: physicochemical; conditions: 30 min, data not shown
[7] = type: in vitro ADME, mouse; conditions: 1 μM, 37 °C
[8] = pH 7.4, % remaining at 30 min with NADPH
[9] = pH 7.4, % remaining at 30 min without NADPH

Compound: CC(C)=CCC/C(C)=C/CC/C(C)=C/CC[C@]1(C)CCc2cc(O)cc(C)c2O1 [δ-Tocotrienol]
remaining at 0.5 h, 1 μM (in vitro; [8]): 63.7 ± 6.7%
remaining at 0.5 h, 1 μM (in vitro; [9]): 100 ± 6.6%
Clin,u [2]: 5240 ± 819.7 µL/min/mg
half-life at 1 μM ([3]; mouse, microsomes, pH 7.4): 1.8 ± 0.287 h
Plasma elimination half-life [4]: short

Compound: CC(C)=CCC/C(C)=C/CC/C(C)=C/CC[C@]1(C)CCc2cc(O)c(C)c(C)c2O1 [γ-tocotrienol]
Plasma elimination half-life [4]: short

Compound: C/C(=C\CC/C(C)=C/CC[C@]1(C)CCc2cc(O)cc(C)c2O1)CCC=C(CF)CF [DT3-F2 (1), (R)-2-((3E,7E)-13-Fluoro-12-(fluoromethyl)-4,8-dimethyltrideca-3,7,11-trien-1-yl)-2,8-dimethylchroman-6-ol]
Parent peak after incubation in mouse liver microsomes [5]: no longer detectable
Degradation in mouse liver microsomes in the presence of NADPH (in words) ([3]; with NADPH, 30 min): exhausted (below detection limit)
Degradation in mouse liver microsomes in the absence of NADPH (in words) ([3]; without NADPH, 30 min): exhausted (below detection limit)
Stability when stirred in 15% aqueous NaOH [6]: remained intact
Decrease of compound after incubation with active mouse liver microsomes ([7]; 10 min, microsomes + buffer, no NADPH): ~ 50%
Degradation with mouse liver microsomes + NADPH, compared with microsomes alone ([7]; up to 10 min, NADPH present): More degradation
Stability in buffer (PBS) alone ([7]; up to 10 min, PBS): stable

Second part, the compound after the results:

Reaction with morpholine in HBD solvents ([1]; hydrogen-bond donor solvents, 70 °C, Figure S3): able to react
Reaction with N-acetyl cysteine (NAC) ([1]; nucleophilic sulfide NAC, Figure S2): No reaction
Compound: C/C(=C\CS(=O)(=O)c1ccccc1)CCC=C(CF)CF [compound 3, (E)-((8-Fluoro-7-(fluoromethyl)-3-methylocta-2,6-dien-1-yl)sulfonyl) benzene]

half-life at 1 μM (in vitro; pH 7.4): 0.417 ± 0.16 h
remaining at 0.5 h, 1 μM (in vitro; [8]): 14.5 ± 10.4%
remaining at 0.5 h, 1 μM (in vitro; [9]): 107 ± 8.9%
Compound: CC(C)NCC(O)COc1cccc2ccccc12 (stereo not drawn) [Propranolol]
